Patent publication US6525098B1, “6-methoxy-2-naphthylacetic acid prodrugs” (Nobex Corporation, priority 1999, dated 2003)

Columns and labels:
[1] = tested on: rat paw edema; test: rat paw edema; type: in vivo
[2] = analysis of blood samples / plasma levels in rats after oral delivery; type: in vivo
Text: FIG. 1 is a graph of in plasma levels of Example 1 compared to Nabumetone.

[3] = oral administration; cited from earlier work

melting point [°C] | Structure (SMILES) | rat paw edema, % inhibition [1] [%] | plasma levels and onset compared to Nabumetone (FIG. 1) [2] | fraction of orally administered nabumetone transferred in vivo into 6MNA [3]
110 to 113 | COc1ccc2cc(CCO)ccc2c1 [Example 1, 2-(6-Methoxy-naphthalen-2-yl)-ethanol] | 67.5 | higher plasma levels, with more rapid onset | –
– | COc1ccc2cc(CCC(C)=O)ccc2c1 [Nabumetone, nabumetone, reference compound] | 60.0 | – | about 35%
